Laboratory results published in patent publication US9598421B2, “Imidazopyridazine compounds” (Pfizer Inc., priority 2014, dated 2017).
Like-named read-outs stand apart in the source and are kept apart here.

Columns and labels:
Assay type in all cases: biochemical
[1] = molecular target: Human PDE4C (Homo sapiens (Human), UniProt Q08493); assay: PDE4C Scintillation Proximity Assay (SPA), inhibition of enzyme activity; settings: read-out: Human PDE4C FL
Experimental: (§1) The PDE4A3, PDE4B1, PDE4C1 and PDE4D3 assays use the Scintillation Proximity Assay (SPA) technology to measure the inhibition of human recombinant PDE4A1, PDE4B3, PDE4C1, and PDE4D3 enzyme activity by compounds in vitro. The PDE4A1, PDE4B3, PDE4C1, and PDE4D3 assays are run in parallel using identical parameters, except for the concentration of enzyme (80 pM PDE4A3, 40 pM PDE4B3, 40 pM PDE4C1 and 10 pM PDE4D). […] Reactions are incubated for 30 min at 25° C. The addition of 20 uL of 8 mg/ml yitrium silicate SPA beads (Perkin Elmer) stops the reaction. The plates are sealed (TopSeal, Perkin Elmer) and the beads are allowed to settle for 8 hrs, after which they are read on the Trilux Microbeta overnight.

[2] = molecular target: Human PDE4D (Homo sapiens (Human), UniProt Q08499); assay: PDE4D Scintillation Proximity Assay (SPA), inhibition of enzyme activity; settings: read-out: Human PDE4D FL
Human PDE4D, sequence (Q08499 186-808): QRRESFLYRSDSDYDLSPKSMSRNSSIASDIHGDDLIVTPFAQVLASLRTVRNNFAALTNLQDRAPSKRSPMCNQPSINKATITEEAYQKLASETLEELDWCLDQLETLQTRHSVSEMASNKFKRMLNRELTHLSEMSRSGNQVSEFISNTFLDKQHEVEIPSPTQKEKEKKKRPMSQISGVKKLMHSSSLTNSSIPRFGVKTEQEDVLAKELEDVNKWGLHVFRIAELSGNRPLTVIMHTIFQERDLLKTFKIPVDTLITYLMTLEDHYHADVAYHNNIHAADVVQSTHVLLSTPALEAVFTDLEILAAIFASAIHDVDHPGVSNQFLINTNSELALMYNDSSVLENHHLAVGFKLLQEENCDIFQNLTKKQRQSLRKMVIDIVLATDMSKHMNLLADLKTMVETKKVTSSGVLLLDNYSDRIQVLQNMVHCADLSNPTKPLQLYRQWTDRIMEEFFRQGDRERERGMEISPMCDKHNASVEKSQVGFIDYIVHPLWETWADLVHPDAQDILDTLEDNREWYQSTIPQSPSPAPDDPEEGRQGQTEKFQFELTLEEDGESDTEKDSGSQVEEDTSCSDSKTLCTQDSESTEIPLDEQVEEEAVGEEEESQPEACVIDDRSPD

[3] = molecular target: Human PDE4A (Homo sapiens (Human), UniProt P27815); assay: PDE4A Scintillation Proximity Assay (SPA), inhibition of enzyme activity; settings: read-out: Human PDE4A FL
Human PDE4A, sequence (P27815 other isoform, or with tags, fused parts or gaps): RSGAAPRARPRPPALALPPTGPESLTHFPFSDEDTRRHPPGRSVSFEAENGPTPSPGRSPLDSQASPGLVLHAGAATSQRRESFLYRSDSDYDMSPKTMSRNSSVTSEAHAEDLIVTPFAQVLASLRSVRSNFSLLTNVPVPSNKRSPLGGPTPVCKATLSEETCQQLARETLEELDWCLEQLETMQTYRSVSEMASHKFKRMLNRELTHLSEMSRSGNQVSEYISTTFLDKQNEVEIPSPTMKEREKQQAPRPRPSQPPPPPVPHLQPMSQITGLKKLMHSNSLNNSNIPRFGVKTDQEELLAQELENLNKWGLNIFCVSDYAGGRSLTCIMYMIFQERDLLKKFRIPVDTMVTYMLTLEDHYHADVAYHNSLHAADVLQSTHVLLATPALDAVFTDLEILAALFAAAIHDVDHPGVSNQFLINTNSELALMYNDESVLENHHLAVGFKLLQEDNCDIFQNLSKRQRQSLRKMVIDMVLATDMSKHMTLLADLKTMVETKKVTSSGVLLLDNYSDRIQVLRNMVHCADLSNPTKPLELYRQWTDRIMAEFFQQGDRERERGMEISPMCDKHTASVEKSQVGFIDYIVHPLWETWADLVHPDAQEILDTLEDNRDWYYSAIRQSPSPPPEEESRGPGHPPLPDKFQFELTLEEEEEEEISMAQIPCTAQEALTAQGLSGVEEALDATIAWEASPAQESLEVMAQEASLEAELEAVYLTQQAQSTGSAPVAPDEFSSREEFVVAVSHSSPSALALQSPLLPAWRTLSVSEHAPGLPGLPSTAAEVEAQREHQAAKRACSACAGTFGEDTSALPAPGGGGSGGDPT
Experimental: as §1

[4] = human recombinant enzyme, 1 μM cAMP substrate, 30 min at 25° C., geometric mean of 2-9 determinations unless otherwise indicated

Human PDE4C, sequence (Q08493 2-712): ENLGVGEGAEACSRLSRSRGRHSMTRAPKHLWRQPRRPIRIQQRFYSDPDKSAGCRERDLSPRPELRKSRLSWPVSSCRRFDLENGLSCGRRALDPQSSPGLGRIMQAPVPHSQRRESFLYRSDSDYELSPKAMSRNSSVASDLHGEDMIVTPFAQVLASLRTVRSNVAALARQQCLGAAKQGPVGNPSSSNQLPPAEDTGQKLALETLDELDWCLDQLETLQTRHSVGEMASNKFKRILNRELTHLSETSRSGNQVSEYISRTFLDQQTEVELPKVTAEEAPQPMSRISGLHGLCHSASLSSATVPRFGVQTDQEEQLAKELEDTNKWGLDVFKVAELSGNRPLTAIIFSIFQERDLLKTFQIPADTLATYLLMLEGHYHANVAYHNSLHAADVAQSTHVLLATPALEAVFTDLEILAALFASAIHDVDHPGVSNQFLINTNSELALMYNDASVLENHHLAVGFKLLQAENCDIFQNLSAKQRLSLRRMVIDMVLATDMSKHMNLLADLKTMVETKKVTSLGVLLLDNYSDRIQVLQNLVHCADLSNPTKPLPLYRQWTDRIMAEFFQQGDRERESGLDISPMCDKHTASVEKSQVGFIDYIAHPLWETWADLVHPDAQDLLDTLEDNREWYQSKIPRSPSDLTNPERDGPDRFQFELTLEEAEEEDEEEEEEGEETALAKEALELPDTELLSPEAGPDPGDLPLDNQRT

| Compound | IC50 [3, 4] [µM] | IC50 [2, 4] [µM] | other results |
| --- | --- | --- | --- |
| O=C(c1nc2cccnn2c1-c1ccc(Cl)cc1)N1CCC1 [Example 1, Azetidin-1-yl[3-(4-chlorophenyl)imidazo[1,2-b]pyridazin-2-yl]methanone] |  |  | IC50 [1]: 0.13 µM; IC50 [2]: 10.3 µM |
| O=C(NC1CC1)c1nc2cccnn2c1-c1ccc(Cl)cc1 [Example 2, 3-(4-Chlorophenyl)-N-cyclopropylimidazo[1,2-b]pyridazine-2-carboxamide] |  |  | IC50 [3]: 0.0107 µM; IC50 [1]: 0.0279 µM; IC50 [2]: 4.34 µM |
| COc1c(F)cc(-c2c(C(=O)N3CCC3)nc3cccnn23)cc1F [Example 3, Azetidin-1-yl[3-(3,5-difluoro-4-methoxyphenyl)imidazo[1,2-b]pyridazin-2-yl]methanone] |  |  | IC50 [3]: 0.0127 µM; IC50 [1]: 0.0519 µM; IC50 [2]: 2.41 µM |
| N#Cc1ccc(-c2c(C(=O)NC3CC3)nc3cccnn23)cn1 [Example 5, 3-(6-Cyanopyridin-3-yl)-N-cyclopropylimidazo[1,2-b]pyridazine-2-carboxamide] | 0.0402 |  | IC50 [1, 4]: 0.208 µM; IC50 [2]: > 26.6 µM |
| O=C(NC1CC1)c1nc2cccnn2c1-c1ccc2ncnn2c1 [Example 6, N-Cyclopropyl-3-([1,2,4]triazolo[1,5-a]pyridin-6-yl)imidazo[1,2-b]pyridazine-2-carboxamide] | 0.0644 |  |  |
| Cn1cc(NC(=O)c2nc3cccnn3c2-c2ccc(Cl)c(F)c2)cn1 [Example 7, 3-(4-Chloro-3-fluorophenyl)-N-(1-methyl-1H-pyrazol-4-yl)imidazo[1,2-b]pyridazine-2-carboxamide] |  |  | IC50 [3]: 0.00277 µM; IC50 [1]: 0.00235 µM; IC50 [2]: 0.0345 µM |
| O=C(c1nc2cccnn2c1-c1ccc2ccnn2c1)N1CCC1 [Example 8, Azetidin-1-yl[3-(pyrazolo[1,5-a]pyridin-6-yl)imidazo[1,2-b]pyridazin-2-yl]methanone] | 0.02 | 5.44 |  |
| O=C(NC1CC1)c1nc2cccnn2c1-c1cc(F)c(Cl)cc1F [Example 9, 3-(4-Chloro-2,5-difluorophenyl)-N-cyclopropylimidazo[1,2-b]pyridazine-2-carboxamide] | 0.00383 | 1.49 | IC50 [1, 4]: 0.0409 µM |
| O=C(NC1CC1)c1nc2cccnn2c1-c1ccc(Cl)c(F)c1 [Example 10, 3-(4-chloro-3-fluorophenyl)-N-cyclopropylimidazo[1,2-b]pyridazine-2-carboxamide] | 0.00151 | 0.59 | IC50 [1, 4]: 0.00684 µM |
| Cc1cc(Cl)ccc1-c1c(C(=O)NC2CC2)nc2cccnn12 [Example 12, 3-(4-chloro-2-methylphenyl)-N-cyclopropylimidazo[1,2-b]pyridazine-2-carboxamide] | 0.0144 | 5.22 | IC50 [1, 4]: 0.0896 µM |
| O=C(c1nc2cccnn2c1-c1ccc(Cl)c(F)c1)N1CCC1 [Example 13, azetidin-1-yl[3-(4-chloro-3-fluorophenyl)imidazo[1,2-b]pyridazin-2-yl]methanone] | 0.00513 | 0.669 | IC50 [1, 4]: 0.0173 µM |
| O=C(NC1CC1)c1nc2cccnn2c1-c1cncc(Cl)c1 [Example 14, 3-(5-chloropyridin-3-yl)-N-cyclopropylimidazo[1,2-b]pyridazine-2-carboxamide] | 0.0737 | > 8.01 | IC50 [1, 4]: 0.108 µM |
| O=C(c1nc2cccnn2c1-c1cncc(Cl)c1)N1CCC1 [Example 15, azetidin-1-yl[3-(5-chloropyridin-3-yl)imidazo[1,2-b]pyridazin-2-yl]methanone] | 0.264 |  |  |
| Cc1cc(-c2c(C(=O)NC3CC3)nc3cccnn23)c(F)cc1C#N [Example 17, 3-(4-cyano-2-fluoro-5-methylphenyl)-N-cyclopropylimidazo[1,2-b]pyridazine-2-carboxamide] | 0.0899 |  |  |
| Cc1cc(-c2c(C(=O)N3CCC3)nc3cccnn23)c(F)cc1C#N [Example 18, 4-[2-(azetidin-1-ylcarbonyl)imidazo[1,2-b]pyridazin-3-yl]-5-fluoro-2-methylbenzonitrile] | 0.055 | 8.2 | IC50 [1, 4]: 0.147 µM |
| Cc1cc(C#N)c(F)cc1-c1c(C(=O)NC2CC2)nc2cccnn12 [Example 19, 3-(4-cyano-5-fluoro-2-methylphenyl)-N-cyclopropylimidazo[1,2-b]pyridazine-2-carboxamide] | 0.0169 |  |  |
| Cc1cc(C#N)c(F)cc1-c1c(C(=O)N2CCC2)nc2cccnn12 [Example 20, 4-[2-(azetidin-1-ylcarbonyl)imidazo[1,2-b]pyridazin-3-yl]-2-fluoro-5-methylbenzonitrile] | 0.0067 | 0.49 | IC50 [1, 4]: 0.0748 µM |
| CN(C(=O)c1nc2cccnn2c1-c1ccc(Cl)c(F)c1)C1CC1 [Example 21, 3-(4-chloro-3-fluorophenyl)-N-cyclopropyl-N-methylimidazo[1,2-b]pyridazine-2-carboxamide] | 0.0537 |  |  |
| O=C(NC1CC1)c1nc2cccnn2c1-c1ccc2ccnn2c1 [Example 22, N-cyclopropyl-3-(pyrazolo[1,5-a]pyridin-6-yl)imidazo[1,2-b]pyridazine-2-carboxamide] | 0.0276 | 1.89 | IC50 [1, 4]: 0.0712 µM |
| CCCNC(=O)c1nc2cccnn2c1-c1cc(F)cc(Cl)c1 [Example 34, 3-(3-chloro-5-fluorophenyl)-N-propylimidazo[1,2-b]pyridazine-2-carboxamide] | 0.0295 |  |  |

| Compound | IC50 [3, 4] [µM] | IC50 [2, 4] [µM] | other results |
| --- | --- | --- | --- |
| Cc1ccc(-c2c(C(=O)NC3CC3)nc3cccnn23)cc1F [Example 41, N-cyclopropyl-3-(3-fluoro-4-methylphenyl)imidazo[1,2-b]pyridazine-2-carboxamide] | 0.00313 |  |  |
| O=C(N[C@@H]1C[C@@H]1F)c1nc2cccnn2c1-c1ccc(Cl)c(F)c1 [Example 45, 3-(4-chloro-3-fluorophenyl)-N-[(1R,2S)-2-fluorocyclopropyl]imidazo[1,2-b]pyridazine-2-carboxamide] | 0.00291 |  |  |
| Cc1ccc(-c2c(C(=O)N3CCC3)nc3cccnn23)cc1Cl [Example 49, azetidin-1-yl[3-(3-chloro-4-methylphenyl)imidazo[1,2-b]pyridazin-2-yl]methanone] | 0.00416 |  |  |
| Cc1cc(Cl)ccc1-c1c(C(=O)N2CCC2)nc2cccnn12 [Example 56, azetidin-1-yl[3-(4-chloro-2-methylphenyl)imidazo[1,2-b]pyridazin-2-yl]methanone] | 0.0227 |  |  |
| Cc1ccc(-c2c(C(=O)N[C@@H]3C[C@@H]3F)nc3cccnn23)c(F)c1 [Example 72, N-[(1R,2S)-2-fluorocyclopropyl]-3-(2-fluoro-4-methylphenyl)imidazo[1,2-b]pyridazine-2-carboxamide] |  | 6.59 |  |
| COc1ccc(-c2c(C(=O)N3CCC3)nc3cccnn23)c(F)c1 [Example 73, azetidin-1-yl[3-(2-fluoro-4-methoxyphenyl)imidazo[1,2-b]pyridazin-2-yl]methanone] | 0.165 |  |  |
| O=C(c1nc2cccnn2c1-c1cnc2ccnn2c1)N1CCC1 [Example 74, azetidin-1-yl[3-(pyrazolo[1,5-a]pyrimidin-6-yl)imidazo[1,2-b]pyridazin-2-yl]methanone] |  | 10.5 |  |
| O=C(NC1CC1)c1nc2cccnn2c1-c1cnc2ccnn2c1 [Example 78, N-cyclopropyl-3-(pyrazolo[1,5-a]pyrimidin-6-yl)imidazo[1,2-b]pyridazine-2-carboxamide] |  | 6.49 |  |
| Cc1ccc(C#N)cc1-c1c(C(=O)NC2CC2)nc2cccnn12 [Example 80, 3-(5-cyano-2-methylphenyl)-N-cyclopropylimidazo[1,2-b]pyridazine-2-carboxamide] |  | > 25.4 |  |
| CCNC(=O)c1nc2cccnn2c1-c1ccc(Cl)c(F)c1 [Example 81, 3-(4-chloro-3-fluorophenyl)-N-ethylimidazo[1,2-b]pyridazine-2-carboxamide] | 0.00786 |  |  |
| O=C(Nc1cn[nH]c1)c1nc2cccnn2c1-c1ccc(Cl)c(F)c1 [Example 82, 3-(4-chloro-3-fluorophenyl)-N-(1H-pyrazol-4-yl)imidazo[1,2-b]pyridazine-2-carboxamide] | 0.012 |  |  |
| O=C(c1nc2cccnn2c1-c1cccc(Cl)c1)N1CCC1 [Example 84, azetidin-1-yl[3-(3-chlorophenyl)imidazo[1,2-b]pyridazin-2-yl]methanone] | 0.0167 |  |  |
| O=C(c1nc2cccnn2c1-c1ccc2c(c1)OC(F)(F)O2)N1CCC1 [Example 86, azetidin-1-yl[3-(2,2-difluoro-1,3-benzodioxol-5-yl)imidazo[1,2-b]pyridazin-2-yl]methanone] | 0.00583 |  |  |
| O=C(c1nc2cccnn2c1-c1cc(F)c(Cl)cc1F)N1CCC1 [Example 91, azetidin-1-yl[3-(4-chloro-2,5-difluorophenyl)imidazo[1,2-b]pyridazin-2-yl]methanone] | 0.0126 |  |  |
| CCNC(=O)c1nc2cccnn2c1-c1ccc(Cl)cc1C [Example 95, 3-(4-chloro-2-methylphenyl)-N-ethylimidazo[1,2-b]pyridazine-2-carboxamide] |  | 14.8 |  |
| Cc1cc(Cl)c(F)cc1-c1c(C(=O)NC(C)C)nc2cccnn12 [Example 97, 3-(4-chloro-5-fluoro-2-methylphenyl)-N-(propan-2-yl)imidazo[1,2-b]pyridazine-2-carboxamide] | 0.00548 |  |  |
| Cc1cc(C#N)c(F)cc1-c1c(C(=O)NC(C)C)nc2cccnn12 [Example 99, 3-(4-cyano-5-fluoro-2-methylphenyl)-N-(propan-2-yl)imidazo[1,2-b]pyridazine-2-carboxamide] | 0.0198 |  |  |
| CC(C)NC(=O)c1nc2cccnn2c1-c1cc(F)c(Cl)cc1F [Example 100, 3-(4-chloro-2,5-difluorophenyl)-N-(propan-2-yl)imidazo[1,2-b]pyridazine-2-carboxamide] |  | 0.766 |  |
| O=C(Nc1ccn[nH]1)c1nc2cccnn2c1-c1ccc(Cl)cc1 [Example 103, 3-(4-chlorophenyl)-N-(1H-pyrazol-5-yl)imidazo[1,2-b]pyridazine-2-carboxamide] | 0.0627 |  |  |
